Assay results: article PMC4430595 (European Journal of Clinical Pharmacology, 2015)
Several values for one entry are separate records, joined by “and”; a condition that tells them apart may be missing. Equal entries are not always repeated. Where two headings read alike, the source gives them in different places. Each block holds one molecule with its values, some of them ahead of it.

Experiments:
[1] = clinical; details: both, human, in vivo, iv, 7.5 mg/kg
[2] = Study B: plasma pharmacokinetics after single-dose i.v. telavancin 10 mg/kg in subjects with varying renal function; details: for half-life / AUC(0-inf) / Cmax / clearance: both, human, in vivo, iv; for half-life / AUC(0-inf) / Cmax / clearance / increase in systemic exposure (AUC0–∞) compared with healthy subjects: 10 mg/kg; for AUC(0-inf): AUC0–∞; for Cmax: C max (maximum plasma concentration); for clearance: CL (clearance)
Description: Plasma pharmacokinetic parameters were calculated as previously described.

[3] = test system: plasma proteins; experiment: Plasma protein binding by equilibrium dialysis (study A pre-infusion plasma); type: in vitro ADME, human; details: in vitro equilibrium dialysis; for Protein binding (%): pre-infusion plasma, telavancin 50 μg/ml spiked with 1 μg/ml [14C]telavancin, mean ± SD
Description: The percent of protein binding was calculated as follows: %bound=donor−receptor÷donor×100%,and%unbound=receptor÷donor×100%, where donor = plasma side concentration and receptor = buffer side concentration.

[4] = cited from earlier work
[5] = study A, ESRD
[6] = Study B: urinary excretion and renal clearance; details: mean ± SD; for CLR (renal clearance): CLR = Ae ÷ AUC; for dose excreted: human, in vivo, iv, 10 mg/kg; for Ae0–∞ (amount excreted in the urine extrapolated to infinity): normalized to a telavancin dose of 10 mg/kg
[7] = Study A: plasma pharmacokinetics after single-dose i.v. telavancin 7.5 mg/kg in subjects with varying renal function
[8] = not given; remark: listed apart in the source
[9] = human, in vivo
[10] = data on file, cited from earlier work
[11] = study B, single 1-h i.v. infusion telavancin 10 mg/kg, plasma, mild RI (eGFR 60 to 89 mL/min/1.73 m^2), n = 13, mean ± SD
[12] = study B, single 1-h i.v. infusion telavancin 10 mg/kg, plasma, normal renal function (eGFR ≥90 mL/min/1.73 m^2), n = 14, mean ± SD
[13] = study B, single 1-h i.v. infusion telavancin 10 mg/kg, plasma, severe RI (eGFR 15 to 29 mL/min/1.73 m^2), n = 8, mean ± SD
[14] = subjects with severe renal impairment or ESRD, stated for both studies

Molecule: CCCCCCCCCCNCCN[C@@]1(C)C[C@H](O[C@H]2[C@H](Oc3c4cc5cc3Oc3ccc(cc3Cl)[C@@H](O)[C@@H](NC(=O)[C@@H](CC(C)C)NC)C(=O)N[C@@H](CC(N)=O)C(=O)N[C@H]5C(=O)N[C@H]3C(=O)N[C@H](C(=O)N[C@H](C(=O)O)c5cc(O)c(CNCP(=O)(O)O)c(O)c5-c5cc3ccc5O)[C@H](O)c3ccc(c(Cl)c3)O4)O[C@H](CO)[C@@H](O)[C@@H]2O)O[C@@H](C)[C@H]1O [telavancin]
Cmax [1]: 70.6 ± 11.2 µg/mL
half-life [2]: 6.5 h
AUC(0-inf) [2, 11]: 606 µg·h/mL
AUC(0-inf) ([2]; study B, single 1-h i.v. infusion telavancin 10 mg/kg, plasma, moderate RI (eGFR 30 to 59 mL/min/1.73 m^2), n = 8, mean ± SD): 936 µg·h/mL
AUC(0-inf) [2, 12]: 539 µg·h/mL
AUC(0-inf) [2, 13]: 1400 µg·h/mL
Cmax ([2]; study B, single 1-h i.v. infusion telavancin 10 mg/kg, mild RI (eGFR 60 to 89 mL/min/1.73 m^2), n = 13, mean ± SD): 74.2 µg/mL
Cmax ([2]; study B, single 1-h i.v. infusion telavancin 10 mg/kg, normal renal function (eGFR ≥90 mL/min/1.73 m^2), n = 14, mean ± SD): 76.7 µg/mL
Cmax ([2]; study B, single 1-h i.v. infusion telavancin 10 mg/kg, severe RI (eGFR 15 to 29 mL/min/1.73 m^2), n = 8, mean ± SD): 83.2 µg/mL
clearance [2, 11]: 0.253 mL/min/kg
clearance [2, 12]: 0.283 mL/min/kg
clearance [2, 13]: 0.108 mL/min/kg
half-life ([2]; t ½ (terminal elimination half-life), study B, single 1-h i.v. infusion telavancin 10 mg/kg, plasma, mild RI (eGFR 60 to 89 mL/min/1.73 m^2), n = 13, mean ± SD): 7.8 h
half-life ([2]; t ½ (terminal elimination half-life), study B, single 1-h i.v. infusion telavancin 10 mg/kg, plasma, severe RI (eGFR 15 to 29 mL/min/1.73 m^2), n = 8, mean ± SD): 11.8 h
increase in systemic exposure (AUC0–∞) compared with healthy subjects ([2]; study B, mild renal impairment): 12%
increase in systemic exposure (AUC0–∞) compared with healthy subjects ([2]; study B, moderate renal impairment): 74%
increase in systemic exposure (AUC0–∞) compared with healthy subjects ([2]; study B, severe renal impairment): 160%
C max (maximum plasma concentration) ([2]; study B, single 1-h i.v. infusion telavancin 10 mg/kg, moderate RI (eGFR 30 to 59 mL/min/1.73 m^2), n = 8, mean ± SD): 78.0 ± 4.5 µg/mL
Protein binding (%) ([3]; ESRD on dialysis, n = 6): 87.6 ± 1.0/0%
Protein binding (%) ([3]; mild RI (CLcr 51–80 mL/min), n = 6): 87.5 ± 1.0%
Protein binding (%) ([3]; moderate RI (CLcr 30–50 mL/min), n = 6): 87.8 ± 1.1%
Protein binding (%) ([3]; normal renal function (CLcr >80 mL/min), n = 6): 86.5 ± 1.3%
Protein binding (%) ([3]; severe RI (CLcr <30 mL/min), n = 4): 86.7 ± 1.2%
average binding to plasma proteins ([3]; study A pre-dose plasma, all renal impairment groups): approximately 87%
subjects reporting treatment-emergent adverse events (TEAEs) (study A, ESRD, 2/6): 33%
subjects reporting treatment-emergent adverse events (TEAEs) (study A, all subjects, 17/29): 59%
subjects reporting treatment-emergent adverse events (TEAEs) (study A, mild renal impairment, 4/7): 57%
subjects reporting treatment-emergent adverse events (TEAEs) (study A, moderate renal impairment, 3/6): 50%
subjects reporting treatment-emergent adverse events (TEAEs) (study A, normal renal function, 5/6): 83%
subjects reporting treatment-emergent adverse events (TEAEs) (study A, severe impairment, 3/4): 75%
tolerability (study A, single i.v. infusion 7.5 mg/kg, normal renal function and varying degrees of renal impairment): well tolerated
audiology assessments (ten subjects with various degrees of renal impairment, study not given): no clinically significant abnormalities
excreted intact in urine ([4]; after a single i.v. administration of 10 mg/kg): 82%
elimination half-life (t½) ([4]; healthy adult volunteers, 7.5–15 mg/kg/day i.v. infusion, averaging): ~7 h
dialysis clearance as share of clearance in normal subjects (total body CL) [5]: approximately 25%
total administered dose removed by dialysis session ([5]; 7.5 mg/kg, 4-h haemodialysis on the day of administration, dialysate flow 800 mL/min): approximately 6%
dialysis clearance ([5]; CLHD = QD × (CTLV – DTLV) ÷ CTLV, dialysate flow 800 mL/min, estimated): 4.5 mL/min
dialysis clearance ([5]; same value in ml/h): 4.52 mL/min
CLR (renal clearance) ([6]; mild renal impairment): 0.147 ± 0.055 mL/min/kg
CLR (renal clearance) ([6]; moderate renal impairment): 0.0783 ± 0.0267 mL/min/kg
CLR (renal clearance) ([6]; normal renal function): 0.17 ± 0.03 mL/min/kg and 0.175 ± 0.0317 mL/min/kg
CLR (renal clearance) ([6]; severe renal impairment): 0.03 ± 0.01 mL/min/kg and 0.0317 ± 0.012 mL/min/kg
dose excreted ([6]; both, Ae0-t % (percentage of the dose excreted in urine), urine 0–96 h, mild renal impairment): 58.2 ± 11.5%
dose excreted ([6]; both, Ae0-t % (percentage of the dose excreted in urine), urine 0–96 h, moderate renal impairment): 48.4 ± 8.7%
dose excreted ([6]; both, Ae0-t % (percentage of the dose excreted in urine), urine 0–96 h, normal renal function): 62.8 ± 9%
dose excreted ([6]; both, Ae0–∞% (percentage of the dose excreted in urine, extrapolated to infinity), normal renal function): 62.7 ± 9.1%
dose excreted ([6]; Ae0–∞% (percentage of the dose excreted in urine, extrapolated to infinity), mild renal impairment): 58.2 ± 11.6%
dose excreted ([6]; Ae0–∞% (percentage of the dose excreted in urine, extrapolated to infinity), moderate renal impairment): 48.4 ± 9.3%
dose excreted ([6]; Ae0–∞% (percentage of the dose excreted in urine, extrapolated to infinity), severe renal impairment): 28.2 ± 3.9%
Ae0–∞ (amount excreted in the urine extrapolated to infinity) ([6]; mild renal impairment): 396 ± 100 mg
Ae0–∞ (amount excreted in the urine extrapolated to infinity) ([6]; moderate renal impairment): 375 ± 96 mg
Ae0–∞ (amount excreted in the urine extrapolated to infinity) ([6]; normal renal function): 435 ± 91 mg
Ae0–∞ (amount excreted in the urine extrapolated to infinity) ([6]; severe renal impairment): 208 ± 60 mg
Ae0-t % (percentage of the dose excreted in urine) ([6]; urine 0–96 h, severe renal impairment): 28.0 ± 4.3%
clearance ([7]; both, human, in vivo, iv, 7.5 mg/kg, CL (clearance), study A, single 1-h i.v. infusion telavancin 7.5 mg/kg, plasma, ESRD, n = 6, includes residual clearance and any dialysis clearance, mean ± SD): 0.136 mL/min/kg
increase in systemic exposure (AUC0–∞) compared with healthy subjects ([7]; study A, 7.5 mg/kg, ESRD group): 79%
increase in systemic exposure (AUC0–∞) compared with healthy subjects ([7]; study A, 7.5 mg/kg, mild renal impairment): 13%
increase in systemic exposure (AUC0–∞) compared with healthy subjects ([7]; study A, 7.5 mg/kg, moderate renal impairment): 29%
increase in systemic exposure (AUC0–∞) compared with healthy subjects ([7]; study A, 7.5 mg/kg, severe renal impairment): 118%
change of t1/2 [7, 14]: almost doubled
reduction of mean plasma CL [7, 14]: more than 50%
serious adverse events ([8]; stated after the study B findings, study not given): No serious adverse events were reported
subjects reporting treatment-emergent adverse events (TEAEs) ([8]; study B, all subjects, 7/43): 16.3%
subjects reporting treatment-emergent adverse events (TEAEs) ([8]; study B, mild renal impairment, 1/13): 7.7%
subjects reporting treatment-emergent adverse events (TEAEs) ([8]; study B, moderate renal impairment, 2/8): 25%
subjects reporting treatment-emergent adverse events (TEAEs) ([8]; study B, normal renal function, 0/14): 0%
subjects reporting treatment-emergent adverse events (TEAEs) ([8]; study B, severe impairment, 4/8): 50%
tolerability ([8]; study B, single i.v. infusion 10 mg/kg, normal renal function and varying degrees of renal impairment): well tolerated
subjects with ECG QT prolongation ([8]; study B, three subjects of 43 (two severe, one moderate renal impairment), mild and transient): 7.0%
subjects with increased blood lactate dehydrogenase ([8]; study B, two subjects of 43, mild and transient): 4.7%

CL (clearance) [9]: 9.8 ± 4.3/0 mL/h/kg
Molecule: hydroxypropylbetadex
t½ ([10]; previously studied patients with severe renal impairment): 15.6 ± 6.0 h
t½ ([10]; subjects with normal renal function): 2.5 ± 0.84 h
